Measurements published in US6538032B1, “Phytosphingosine derivatives with antitumor activity” (Charmzone Co., Ltd., priority 2001, dated 2003).

Tested on: Lewis lung carcinoma (LLC) cells
Assay: inhibition of in vivo growth of Lewis lung carcinoma
Set-up: species or system BDF1 mice
Details: 2000 μg, intraperitoneal, 20 doses; day 21
Method: The inhibition of cancer cell growth in vivo system was examined in BDF1 mice using Lewis lung carcinoma (LLC) cells. The concentration of LLC cells used was such that each mouse was injected with one million carcinoma cells via subcutaneous injection to induce a cancer. One hundred microliter of TMP liposome (TMP 100 μg) was injected intraperitoneally and intravenously, respectively, 1 day, 3 days, 6 days and 9 days after the injection of the above LLC cells. As a positive control, AG3340 (Agouron Pharmaceuticals Co., Ltd., USA), known as an MMP-2 (matrix metaloproteinasse-2) inhibitor, was suspended in 0.2% tween/0.5% carboxymethyl cellulose and 2 mg of the resulting suspension was intraperitoneally injected daily. […]
TMP.I liposomes (DPPC/Chol/TMP.I=5:5:1 mole ratio) having an anti-metastatic activity, was administered to BDF1 inoculated with Lewis Lung Carcinoma (LLC) cells and their inhibitory effect on the tumor growth was observed. […] The same administration was repeated after 3 days, 6 days and 9 days of the subcutaneous injection of the LLC cancer cells and 21 days after the injection each mouse was killed by dislocation of the cervical vertebra, and the volume of cancer was measured by the following equation and the results are shown in the following table 5. […]

CC1(C)SCCN(S(=O)(=O)c2ccc(Oc3ccncc3)cc2)[C@H]1C(=O)NO [AG3340]
Volume of Cancer: 1100 ± 250 mm^3
